Test results reported in article PMC7356998, “Intrinsic Dissolution Rate Profiling of Poorly Water-Soluble Compounds in Biorelevant Dissolution Media” (Pharmaceutics, 2020).
In brackets after ≈: the same amount, converted by molar mass. Where two headings read alike, the source gives them in different places. Marks after values point to notes of the source that are not given here.

Tests used:
[1] = apparent solubility, cited from earlier work; for SFaSSIF-V1: FaSSIF-V1 pH 6.5; for SFeSSIF-V1: FeSSIF-V1 pH 5
[2] = Intrinsic dissolution rate from controlled suspensions (SIDR), μDiss Profiler; format: physicochemical; conditions: for IDRFaSSIF-V1 / IDRFaSSIF-V2 / IDRFeSSIF-V2: suspension (S), 100 rpm, mean ± SD; for IDRFaSSIF-V1: FaSSIF-V1 pH 6.5, 37 °C; for IDRFaSSIF-V2: FaSSIF-V2 pH 6.5, 37 °C; for IDRFeSSIF-V2: FeSSIF-V2 pH 5.8, 37 °C; for IDR in fed-state medium (FeSSIF-V1) compared to fasted-state (FaSSIF-V1): suspension assays
Experimental: Controlled suspensions of the APIs were prepared by tip ultrasonication in suspension media. For compatibility reasons, the suspension medium composition was 2% PVP K30 and 0.2% SDS in MilliQ water for acidic and neutral compounds or 1% HPMC and 0.2% SDS in MilliQ water for basic compounds. Suspension media were stirred for at least an hour until a clear solution was obtained. All suspensions were prepared at a concentration of 4 mg API/mL suspension medium by weighing 16 mg of the compound into a glass vial and adding 4 mL of the corresponding suspension medium. The suspension was then briefly vortexed prior to 5 min of tip ultrasonication using a Vibra-Cell sonicator mounted with a 13 mm (Ø) probe tip (Sonics, Newtown, CT, USA). The following settings were used: 20% amplitude, pulse 10 s on and 5 s off. The vial containing the suspension was placed in a beaker with ice during ultrasonication to avoid heating. Felodipine and griseofulvin were treated slightly differently to avoid forming a large fraction of submicron-sized particles. The felodipine suspension was only ultrasonicated for 1 min, and the griseofulvin suspension was used immediately after vortexing and without ultrasonication. All prepared suspensions were kept in an oven at 37 °C prior to use in the dissolution experiments. Dissolution experiments were performed within three hours of sample preparation.
The freshly prepared suspension was diluted (100 µL in 1 mL MilliQ water) and immediately used for determination of hydrodynamic particle size by dynamic light scattering (DLS; Litesizer 500, Anton Paar GmbH, Graz, Austria) at 25 °C. Peak values from the intensity-based particle size distribution were used for calculating total particle surface area in the suspension following the approach of Andersson et al.. In case of bimodal particle size distributions, an intensity peak weighted average particle size was calculated. The following assumptions were made for the surface area calculations: (i) spherical particles, (ii) constant particle size, and (iii) constant number of particles during the initial phase of the dissolution experiment (i.e., under sink conditions or <0.3 × Sapp). Using these assumptions, the volume of each particle (Vparticle) is:(1) Vparticle=4πr^3/3, where r is the mean radius of the suspended particles. The particle surface area (SAparticle) is:(2) SAparticle=4πr^2, and the volume of compound (Vmaterial) added to the dissolution medium is:(3) Vmaterial=m/ρ, where m is the total mass of compound added and ρ is the density of the compound. The total number of particles (n) in the suspension can thus be calculated from:(4) nparticles=Vmaterial/Vparticle
Finally, the total surface area (A, cm^2) of all particles present in the suspension added to the dissolution medium is calculated through:(5) A=nparticlesSAparticle
Dissolution experiments were carried out in a small-scale dissolution apparatus using in situ fiber optic probes to measure the amount of drug dissolved over time by UV absorbance (μDiss Profiler, Pion Inc., Billerica, MA, USA). Drug dissolution was carried out from suspensions (S) or discs (D) depending on the solubility of the compound in the biorelevant media studied (Table 3). […].
Standard curves were established by adding aliquots of DMSO stock solutions of the compounds to 3 mL of biorelevant medium, respectively. Dissolution media were prepared following the protocol provided by Biorelevant.com Ltd. and used within 48 h after their preparation. The media were incubated at 37 °C for at least one hour prior to use in the dissolution experiments. The hydrodynamic diameter of the micelles/vesicles formed in the biorelevant media were measured by DLS (Table 2). […] The biorelevant dissolution medium was maintained at 37 °C in the μDiss Profiler and stirred at 800 rpm during addition of the DMSO stock aliquots. […]

[3] = Apparent solubility estimated from dissolution experiments in the μDiss Profiler; format: physicochemical; conditions: for solubility thermodynamic: thermodynamic from solid
Experimental: If literature values were not available, Sapp values were estimated from the dissolution experiments either from the steady state concentration reached during dissolution making use of an excess amount material, or by nonlinear regression analysis of the dissolution data in GraphPad Prism 7.04 (GraphPad Software Inc., San Diego, CA, USA). […] In these experiments, an excess amount of drug was added to triplicate Eppendorf tubes containing 1 mL of the respective dissolution medium. The tubes were vortexed and placed in a 37 °C incubator. Samples for HPLC analysis were taken 24, 48, and 72 h (triplicates at each time point) after initiation of the experiment to ensure that equilibrium had been reached. The samples were centrifuged at 37 °C, 23,000 g for 10 min (Heraeus Megafuge 8R, Thermo Scientific, Waltham, MA, USA). The supernatant was sampled, diluted 1:1 with acetonitrile, and kept refrigerated until HPLC analysis. The concentrations of the dissolved drugs were determined using a HPLC (Agilent Technologies 1290 Infinity, Santa Clara, CA, USA) with a Zorbax Eclipse XDB-C18 column (4.6 × 100 mm; Agilent Technologies, Santa Clara, CA, USA) kept at 40 °C. The injection volumes were 20 μL. A mobile phase 0.1% formic acid in acetonitrile: 0.1% formic acid in water 60:40 (v/v) and an isocratic flow rate at 1 mL/min were used for both naproxen and ethinylestradiol. UV absorbances were monitored at a wavelength of 232 nm for naproxen and 315 nm for ethinylestradiol. The retention time was 1.76 min for naproxen and 1.85 min for ethinylestradiol. Dissolution experiments were carried out in a small-scale dissolution apparatus using in situ fiber optic probes to measure the amount of drug dissolved over time by UV absorbance (μDiss Profiler, Pion Inc., Billerica, MA, USA). Drug dissolution was carried out from suspensions (S) or discs (D) depending on the solubility of the compound in the biorelevant media studied (Table 3). […] Glass vials (six in parallel), each containing 15 mL of biorelevant dissolution medium and a crossbar stirrer, were used for the dissolution experiments. The stirring rate was set to 100 rpm. Freshly prepared API suspensions were briefly vortexed to re-disperse any sediments and 500 μL of suspension was added to each vial to initiate the experiment. […] Experiments were run for at least 20 min with data collected every 1 s for the first 8 min and then once per minute for the remaining time. All dissolution experiments from suspensions were carried out in triplicate.

[4] = Intrinsic dissolution rate from miniaturized discs (DIDR), μDiss Profiler; format: physicochemical; conditions: disc (D), 100 rpm, mean ± SD; for IDRFaSSIF-V1: FaSSIF-V1 pH 6.5, 37 °C
Experimental: Dissolution experiments were carried out in a small-scale dissolution apparatus using in situ fiber optic probes to measure the amount of drug dissolved over time by UV absorbance (μDiss Profiler, Pion Inc., Billerica, MA, USA). Drug dissolution was carried out from suspensions (S) or discs (D) depending on the solubility of the compound in the biorelevant media studied (Table 3). […] Standard curves were established by adding aliquots of DMSO stock solutions of the compounds to 3 mL of biorelevant medium, respectively. Dissolution media were prepared following the protocol provided by Biorelevant.com Ltd. and used within 48 h after their preparation. The media were incubated at 37 °C for at least one hour prior to use in the dissolution experiments. The hydrodynamic diameter of the micelles/vesicles formed in the biorelevant media were measured by DLS (Table 2). […] Stirring was turned off while measuring the UV absorbance for each aliquot and the standard curve was established based on six aliquots. […] Intrinsic dissolution rates will henceforth be denoted 'IDR' for both SIDR and DIDR values determined in this study (see Table 3 for details).

[5] = FaSSIF-V1, 37 °C, pH 6.5, fassif, FaSSIF-V1 pH 6.5, determined from dissolution experiments in the μDiss Profiler, read-out: SFaSSIF-V1
[6] = FaSSIF-V1 pH 6.5, determined from dissolution experiments in the μDiss Profiler
[7] = FeSSIF-V1, 37 °C, pH 5, fessif, FeSSIF-V1 pH 5, determined from dissolution experiments in the μDiss Profiler, read-out: SFeSSIF-V1

| IDRFaSSIF-V1 [2] [μg/min/cm^2] | IDRFaSSIF-V2 [2] [μg/min/cm^2] | IDRFeSSIF-V2 [2] [μg/min/cm^2] | SMILES | SFaSSIF-V1 [1] | SFeSSIF-V1 [1] | further results |
| --- | --- | --- | --- | --- | --- | --- |
| 8.6 ± 0.4 | 2.0 ± 0.2 | – | COc1ccc(CCN2CCC(Nc3nc4ccccc4n3Cc3ccc(F)cc3)CC2)cc1 [Astemizole] | 97.9 ± 2.1 [15] μg/mL | 182 ± 1 [15] μg/mL | SFaSSIF-V1 ([1]; listed as astemizole): ~ 100 μg/mL |
| 2.9 ± 0.5 | 1.5 ± 0.2 | 13.6 ± 0.6 | COc1ccccc1OCCNCC(O)COc1cccc2[nH]c3ccccc3c12 (stereo not shown) [Carvedilol] | 55.9 ± 1.0 [15] μg/mL | 305 ± 2 [15] μg/mL | – |
| 0.3 ± 0.01 | – | – | C(=C\c1ccccc1)/CN1CCN(C(c2ccccc2)c2ccccc2)CC1 [Cinnarizine] | – | – | – |
| 3.7 ± 0.6 | – | – | COC1=CC(=O)C[C@@H](C)[C@]12Oc1c(Cl)c(OC)cc(OC)c1C2=O [Griseofulvin] | 23.4 ± 1.8 [41] μg/mL | 29.2 ± 3.4 [41] μg/mL | IDR in fed-state medium (FeSSIF-V1) compared to fasted-state (FaSSIF-V1) [2]: lower |
| 13.9 ± 2.0 | 11.9 ± 1.0 | 7.9 ± 2.1 | Cc1cccc(Nc2ccccc2C(=O)O)c1C [Mefenamic acid] | – | – | solubility thermodynamic [3, 5]: 36.6 ± 0.6 µg/mL (≈ 152 µM); solubility thermodynamic [3, 7]: 33.2 ± 0.7 µg/mL (≈ 138 µM) |
| 1.1 ± 0.2 | 1.2 ± 0.1 | 5.2 ± 0.8 | COc1ccc2c(c1OC)C(=O)O[C@@H]2[C@H]1c2c(cc3c(c2OC)OCO3)CCN1C [Noscapine] | – | – | SFaSSIF-V1 ([3]; FaSSIF-V1 pH 6.5, extrapolation of μDiss dissolution data by nonlinear regression (GraphPad Prism)): 13.4 ‡ μg/mL; SFaSSIF-V1 ([3]; FaSSIF-V1 pH 6.5, extrapolation of μDiss dissolution data by nonlinear regression (GraphPad Prism), listed as noscapine): 11 to 13 µg/mL |
| 3.4 ± 0.7 | 1.3 ± 0.8 | – | CN1CC(=O)N2[C@H](c3ccc4c(c3)OCO4)c3[nH]c4ccccc4c3C[C@@H]2C1=O [Tadalafil] | 5.9 ± 0.7 [7] μg/mL | – | solubility thermodynamic [3, 7]: 21 ± 0.5 µg/mL (≈ 53.9 µM); IDR in fed-state medium (FeSSIF-V1) compared to fasted-state (FaSSIF-V1) [2]: double |
| 4.1 ± 0.8 | 12.9 ± 0.9 | 4.8 ± 0.6 | Cc1c(Cl)cccc1Nc1ccccc1C(=O)O [Tolfenamic acid] | 63.0 ± 2.7 [15] μg/mL | 41.0 ± 0.5 [15] μg/mL | – |

Continued, compound first:

| SMILES | IDRFaSSIF-V1 [2] [μg/min/cm^2] | IDRFaSSIF-V2 [2] [μg/min/cm^2] | IDRFeSSIF-V2 [2] [μg/min/cm^2] | SFaSSIF-V1 [1] | SFeSSIF-V1 [1] | further results |
| --- | --- | --- | --- | --- | --- | --- |
| CC(C)(Oc1ccc(CCNC(=O)c2ccc(Cl)cc2)cc1)C(=O)O [Bezafibrate] | 32.7 ± 3.9 | – | – | – | – | solubility thermodynamic [3, 5]: ~100 µg/mL (≈ 276 µM); SFaSSIF-V1 [3, 6]: 91.0 ± 8.9 µg/mL; SFeSSIF-V1 ([3]; FeSSIF-V1 pH 5, extrapolation of μDiss dissolution data by nonlinear regression (GraphPad Prism)): 105.7 ‡ μg/mL |
| C#C[C@]1(O)CC[C@H]2[C@@H]3CCC4=Cc5oncc5C[C@]4(C)[C@H]3CC[C@@]21C [Danazol] | 0.14 ± 0.02 | – | – | – | – | IDR in fed-state medium (FeSSIF-V1) compared to fasted-state (FaSSIF-V1) [2]: 28 fold |
| OCCN(CCO)c1nc(N2CCCCC2)c2nc(N(CCO)CCO)nc(N3CCCCC3)c2n1 [Dipyridamole] | 0.5 ± 0.05 | 0.5 ± 0.03 | 1.7 ± 0.3 | 11.1 ± 3.0 [48] μg/mL | 148.9 ± 19.7 [48] μg/mL | SFaSSIF-V1 ([1]; listed as dipyridamole): 11 to 13 µg/mL |
| CCOC(=O)C1=C(C)NC(C)=C(C(=O)OC)C1c1cccc(Cl)c1Cl (stereo not shown) [Felodipine] | 0.8 ± 0.4 | 0.6 ± 0.2 | 1.5 ± 0.2 | 31.8 ± 1.7 [7] μg/mL | 44.9 ± 9.2 [48] μg/mL | – |
| CC(C)OC(=O)C(C)(C)Oc1ccc(C(=O)c2ccc(Cl)cc2)cc1 [Fenofibrate] | 0.04 ± 0.002 | 0.05 ± 0.001 | 2.7 ± 0.3 | – | – | – |
| CC(C)(Oc1ccc(C(=O)c2ccc(Cl)cc2)cc1)C(=O)O [Fenofibric acid] | – | – | – | – | – | solubility thermodynamic [3, 5]: ~100 µg/mL (≈ 314 µM); SFaSSIF-V1 [3, 6]: 104.8 ± 1.0 µg/mL; solubility thermodynamic [3, 7]: 101 ± 3.8 µg/mL (≈ 318 µM); IDRFaSSIF-V1 [4]: 227 ± 33 μg/min/cm^2 |
| COc1ccc2c(c1)c(CC(=O)O)c(C)n2C(=O)c1ccc(Cl)cc1 [Indomethacin] | – | – | – | 421.7 ± 17.6 [7] μg/mL | 109.0 ± 7.0 [15] μg/mL | IDRFaSSIF-V1 [4]: 31 ± 1.3 μg/min/cm^2 |
| COc1ccc2cc([C@H](C)C(=O)O)ccc2c1 [Naproxen] | – | – | – | – | – | IDRFaSSIF-V1 [4]: 144 ± 12 μg/min/cm^2; IDRFaSSIF-V2 ([4]; FaSSIF-V2 pH 6.5, 37 °C): 179 ± 11 μg/min/cm^2 |
| CC(=O)[C@H]1CC[C@H]2[C@@H]3CCC4=CC(=O)CC[C@]4(C)[C@H]3CC[C@]12C [Progesterone] | 16.8 ± 0.5 | – | – | 25.5 ± 1.1 [50] μg/mL | 78.6 ± 16.2 [41] μg/mL | – |
